≈ marks a conversion by molar mass, not a printed value. Read-outs that look alike come from different tables or passages of the source.
Legend:
Mammalian TrxR [1] = target: T1, Mammalian TrxR (Homo sapiens, UniProt Q16881); assay: Kinetic parameters with mammalian TrxR; format: biochemical; details: sulphur analogues
T1 sequence (Q16881 151-649 limits assumed): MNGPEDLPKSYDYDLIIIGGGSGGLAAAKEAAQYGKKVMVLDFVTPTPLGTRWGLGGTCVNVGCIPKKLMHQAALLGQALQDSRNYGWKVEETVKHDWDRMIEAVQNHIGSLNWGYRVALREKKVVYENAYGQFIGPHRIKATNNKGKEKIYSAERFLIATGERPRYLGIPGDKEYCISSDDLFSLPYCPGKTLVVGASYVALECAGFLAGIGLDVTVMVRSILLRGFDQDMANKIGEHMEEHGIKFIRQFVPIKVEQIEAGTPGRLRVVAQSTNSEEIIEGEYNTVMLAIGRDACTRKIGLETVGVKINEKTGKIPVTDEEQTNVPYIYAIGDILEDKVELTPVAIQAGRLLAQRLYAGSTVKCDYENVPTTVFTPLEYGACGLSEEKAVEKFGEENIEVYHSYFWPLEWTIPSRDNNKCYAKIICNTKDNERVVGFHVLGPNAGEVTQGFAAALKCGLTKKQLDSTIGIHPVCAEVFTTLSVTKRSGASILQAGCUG

E. coli TrxR [2] = target: T2, E. coli TrxR (Escherichia coli, UniProt P0A9P4); assay: Kinetic parameters (substrate) with E. coli TrxR; format: biochemical
E. coli TrxR [3] = target: T2, E. coli TrxR; assay: E. coli TrxR inhibition, thioredoxin dependent DTNB reduction assay; format: biochemical; details: for IC50: DTNB assay, 100 nM TrxR, 2 μM Trx, 240 μM NADPH, 1 mM DTNB, read-out: IC50 for E. coli TrxR; for Ki / Ki for E. coli TrxR: Dixon plot, 6 nM TrxR, Trx 1, 2 or 4 μM; for Ki: read-out: Ki for E. coli TrxR
Protocol: Further we examined the effect of ebselen in the reduction of disulfide by E. coli Trx and TrxR using both DTNB and insulin as substrates.
All the benzisoselenazol-3(2H)-one and bisbenzisoselenazol-3(2H)-one derivatives were tested as potential E. coli TrxR inhibitors by standard DTNB assay. […] The reactions were started by adding 1 mM DTNB to the mixture of 100 nM TrxR, 2 μM Trx, 240 μM NADPH, and different concentration of inhibitor (1-40 μM). […] The reactions were started by adding 6 nM TrxR at room temperature. Inhibition constants (Ki) for all the compounds were measured from Dixon plot, which plots 1/v versus […], I=Inhibitor concentration).

E. coli TrxR [4] = target: T2, E. coli TrxR; assay: as above; format: biochemical; details: Lineweaver-Burk plots, reduction of DTNB; read-out: Ki (dissociation constant of inhibitor-TrxR complex), competitive inhibition of E. coli TrxR
Mammalian TrxR [5] = target: T1, Mammalian TrxR; details: from ref (3) / (32); cited from earlier work
E. coli Trx-(SH)2 = E. coli Trx-(SH)2 (Escherichia coli, UniProt P0AA25); details: fluorescence spectroscopy, ref (32); cited from earlier work
E. coli = format: cell-based, Escherichia coli
Staphylococcus aureus = details: ref (10); cited from earlier work
H. pylori strains = assay: MIC against H. pylori strains
H. pylori TrxR = H. pylori TrxR (Helicobacter pylori, UniProt P56431); assay: H. pylori TrxR activity, insulin reduction assay; details: 4, 20, and 40 μM
[6] = Glutathione peroxidase (GPx) activity of the compounds; format: biochemical; details: relative; EbSe 6 = 1
HEK 293T cells = HEK 293T cells growth (cytotoxicity); format: cell-based; details: Homo sapiens, HEK-293T; read-out: IG50 for HEK 293T
recombinant rat TrxR = target: T3, recombinant rat TrxR (Rattus norvegicus, UniProt O89049); assay: Inhibition of mammalian (recombinant rat) TrxR
T3 sequence (O89049 1-499): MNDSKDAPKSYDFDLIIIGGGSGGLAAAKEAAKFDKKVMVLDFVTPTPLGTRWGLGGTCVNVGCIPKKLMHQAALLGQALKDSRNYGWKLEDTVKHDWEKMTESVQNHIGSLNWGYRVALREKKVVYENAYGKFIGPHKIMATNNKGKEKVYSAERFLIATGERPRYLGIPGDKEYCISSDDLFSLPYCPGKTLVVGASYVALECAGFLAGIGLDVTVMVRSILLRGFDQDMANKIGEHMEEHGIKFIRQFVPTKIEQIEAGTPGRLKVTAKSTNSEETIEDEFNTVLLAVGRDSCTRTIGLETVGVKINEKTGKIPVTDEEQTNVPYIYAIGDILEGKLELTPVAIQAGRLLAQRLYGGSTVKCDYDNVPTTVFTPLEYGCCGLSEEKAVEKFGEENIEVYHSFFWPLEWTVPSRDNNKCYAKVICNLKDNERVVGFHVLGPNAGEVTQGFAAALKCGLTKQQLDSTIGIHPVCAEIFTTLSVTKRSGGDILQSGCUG

Gor DHB4 E. coli = assay: Inhibition of bacterial growth (MIC), Gor DHB4 E. coli; details: Escherichia coli, DHB4E.COLI, read-out: MIC for Gor DHB4 E. coli
From the text: (§1) Here E. coli DHB4 strains wt, gshA^−, gor^−, oxyR^− were used as the model to test the antibiotics activity of these ebselen derivatives.

gshA^− DHB4 E. coli = assay: Inhibition of bacterial growth (MIC), gshA^− DHB4 E. coli; details: Escherichia coli, read-out: MIC for gshA^− DHB4 E. coli
From the text: as §1

wild type DHB4 E. coli = assay: Inhibition of bacterial growth (MIC), wild type DHB4 E. coli; details: Escherichia coli, DHB4E.COLI, read-out: MIC for wild type DHB4 E. coli
From the text: as §1

T2 sequence (P0A9P4 whole entry): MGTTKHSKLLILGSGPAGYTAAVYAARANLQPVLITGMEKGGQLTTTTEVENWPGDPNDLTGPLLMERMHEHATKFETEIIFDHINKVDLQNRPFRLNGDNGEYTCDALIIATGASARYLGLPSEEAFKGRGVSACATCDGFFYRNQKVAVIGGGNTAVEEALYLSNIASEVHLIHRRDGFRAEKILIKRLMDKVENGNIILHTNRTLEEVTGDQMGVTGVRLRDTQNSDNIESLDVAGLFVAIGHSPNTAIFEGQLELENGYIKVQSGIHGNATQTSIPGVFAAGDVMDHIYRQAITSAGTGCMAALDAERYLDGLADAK
Chain of H. pylori TrxR (P56431 whole entry): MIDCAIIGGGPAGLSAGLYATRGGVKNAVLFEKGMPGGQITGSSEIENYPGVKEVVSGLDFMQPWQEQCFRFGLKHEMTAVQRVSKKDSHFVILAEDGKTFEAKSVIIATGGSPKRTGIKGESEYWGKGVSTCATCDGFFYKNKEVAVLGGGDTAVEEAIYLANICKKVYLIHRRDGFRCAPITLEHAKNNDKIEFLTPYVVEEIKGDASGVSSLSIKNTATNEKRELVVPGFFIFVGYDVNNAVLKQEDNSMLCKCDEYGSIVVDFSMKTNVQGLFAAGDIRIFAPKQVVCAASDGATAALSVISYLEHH
Chain of E. coli Trx-(SH)2 (P0AA25 whole entry): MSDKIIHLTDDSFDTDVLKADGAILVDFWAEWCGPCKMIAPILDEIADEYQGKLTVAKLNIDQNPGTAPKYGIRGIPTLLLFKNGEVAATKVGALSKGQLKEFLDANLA

| Compound | IC50 (E. coli TrxR [3]) | Ki (E. coli TrxR [3]) | Relative GPx activity [6] | IC50 (HEK 293T cells) | IC50 (recombinant rat TrxR) | other results |
| --- | --- | --- | --- | --- | --- | --- |
| O=C(Nc1ccccc1)c1ccccc1SSc1ccccc1C(=O)Nc1ccccc1 [(EbS)2] |  |  |  |  |  | Km (Mammalian TrxR [1]): 47 µM; kcat, mammalian TrxR (Mammalian TrxR [1]): 25 s⁻¹; Km (E. coli TrxR [2]): 27.6 µM; kcat, E. coli TrxR (E. coli TrxR [2]): 1.67 s⁻¹ |
| O=C(Nc1ccccc1)c1ccccc1[Se][Se]c1ccccc1C(=O)Nc1ccccc1 [(EbSe)2] |  |  |  |  |  | inhibition of E. coli TrxR (in words) (E. coli TrxR [3]): strongly inhibited; Ki (E. coli TrxR [4]): 0.46 ± 0.05 µM; Km (Mammalian TrxR [5]): 40 µM; kcat, mammalian TrxR (Mammalian TrxR [5]): 1.32 s⁻¹; second-order rate constant of direct reduction by reduced E. coli Trx (E. coli Trx-(SH)2): 1700 M⁻¹ s⁻¹ |
| O=c1c2ccccc2sn1-c1ccccc1 [EbS] |  |  |  |  |  | inhibition of E. coli TrxR (in words) (E. coli TrxR [3]): not inhibitors; Km (Mammalian TrxR [1]): 2.5 µM; kcat, mammalian TrxR (Mammalian TrxR [1]): 23.33 s⁻¹; kcat, E. coli TrxR (E. coli TrxR [2]): 11.7 s⁻¹; enhancement of the toxicity of silver toward bacteria (E. coli): less enhancement; antibacterial activity (in words) (Staphylococcus aureus): lost the antibacterial activity; MIC (H. pylori strains; NCTC11637 strain): 1.56 µg/mL (≈ 6.86 µM); MIC (H. pylori strains; strain YS-16): 0.39 µg/mL (≈ 1.72 µM); H. pylori TrxR activity (H. pylori TrxR): inhibited |
| NCCn1[se]c2ccccc2c1=O [EbSe5] | 2.12 µM | 0.035 µM |  |  |  |  |
| O=c1c2cccnc2[se]n1-c1ccc(Cl)cc1 [EbSe19] | 3 µM | 0.5 µM |  |  |  |  |
| O=c1[nH][se]c2ccccc12 [EbSe 2] | 15 µM | 1 µM | 0.97 | 95 µM | > 10 µM | Ki for E. coli TrxR (E. coli TrxR [3]): Not detected |
| Cn1[se]c2ccccc2c1=O [EbSe 3] | 15 µM |  | 1.2 | 100 µM | > 10 µM | Ki for E. coli TrxR (E. coli TrxR [3]): Not detected |
| CC(C)(C)n1[se]c2ccccc2c1=O [EbSe 4] | 15 µM |  | 1.1 | 75 µM | > 10 µM | Ki for E. coli TrxR (E. coli TrxR [3]): Not detected; inhibition of mammalian TrxR (in words) (recombinant rat TrxR): some activity |
| O=c1c2ccccc2[se]n1-c1ccc(Cl)cc1 [EbSe 7] | 7 µM | 0.55 µM | 0.64 | 120 µM | > 10 µM | MIC (Gor DHB4 E. coli): 23 µM (≈ 7.1 µg/mL); MIC (gshA^− DHB4 E. coli): 20 µM (≈ 6.17 µg/mL); MIC (wild type DHB4 E. coli): 34 µM (≈ 10.5 µg/mL) |
| Cc1cc(Cl)ccc1-n1[se]c2ccccc2c1=O [EbSe 8] | 6 µM | 0.25 µM | 0.67 | 80 µM | > 10 µM | MIC (Gor DHB4 E. coli): 24 µM (≈ 7.74 µg/mL); MIC (gshA^− DHB4 E. coli): 13 µM (≈ 4.19 µg/mL); MIC (wild type DHB4 E. coli): 47 µM (≈ 15.2 µg/mL) |
| O=C(O)c1ccccc1-n1[se]c2ccccc2c1=O [EbSe 9] | 7.5 µM | 1.2 µM | 2.1 | > 160 µM | 0.8 µM | MIC (Gor DHB4 E. coli): 31 µM (≈ 9.86 µg/mL); MIC (gshA^− DHB4 E. coli): 24 µM (≈ 7.64 µg/mL); MIC (wild type DHB4 E. coli): 49 µM (≈ 15.6 µg/mL) |
